Source: patent publication US20030232986A1, “Inhibitors of caspases” (Vertex Pharmaceuticals Incorporated, priority 1998, published 2003)
Where a SMILES comes first, the peptide text is derived from it. The star is where a group is joined. Bz = O=C(c1ccccc1)*

Key:
[1] = system: Human Peripheral Blood Mononuclear Cells (PBMC), mature IL-1β; assay: PBMC cell assay: IL-1β assay with human peripheral blood mononuclear cells; format: cell-based; conditions: LPS-stimulated human PBMC, mature IL-1β in supernatant by ELISA
How it was run: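 Donor PBMC (suspension at 6×10^6 cells/ml) or adherent-enriched monocytes were stimulated with 5 ng/ml LPS (final) alongside 5–6 compound dilutions bracketing the ICE Ki, at 0.1% DMSO final, for 16–18 hr at 37° C, 5% CO2. Mature IL-1β in supernatants was measured by ELISA; IC50 was calculated relative to LPS-only controls.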

[2] = system: Human whole blood, IL-1β production; assay: Whole blood assay for IL-1β production; format: cell-based; conditions: LPS-stimulated whole blood, IL-1β by ELISA
How it was run: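 LPS-stimulated (5.0 ng/ml final) human whole blood incubated with test compound in saline (or plasma/PBS-5% DMSO for hydrophobic compounds) at 30° C for 16-18 hr. Plasma IL-1β then measured by ELISA at 1:200 dilution, against no-LPS, no-inhibitor and vehicle controls.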

[3] = Single pass perfusion in rat: GI wall and liver metabolism, biliary excretion; format: in vitro ADME; conditions: for f (g) Xf (h): GI wall metabolism f(g) x liver metabolism f(h)
Description: Single pass perfusion studies in rat were performed to assess gastrointestinal (GI) wall metabolism (f(g)), liver metabolism (f(h)), and biliary excretion. The method used has been described in Pang, C. S., J. Pharmacol. Exp. Therapeutics, 333, pp. 788-798 (1984).

SMILES	IC50 [1]	IC50 [2]	Biliary Excretion [3]	f (g) Xf (h) [3]
CC(C)[C@H](NC(=O)c1cccc2c1-c1ccccc1C2=O)C(=O)N1CCC[C@H]1C(=O)N[C@H](C=O)CC(=O)O [Example 5k]	> 2 µM	2.5 to 7.5 µM	A (category “A” indicates <5%)	B (Category “B” indicates 0.25-0.49)
C[C@H](NC(=O)[C@@H](NC(=O)c1nccc2ccccc12)C(C)(C)C)C(=O)N[C@H](C=O)CC(=O)O [Example 29g]	0.5 to 1 µM	< 2.5 µM	B (Category “B” indicates 5-10%)	B (Category “B” indicates 0.25-0.49)
COc1ccc(C(=O)N[C@@H](C)C(=O)N2CCC[C@H]2C(=O)N[C@H](C=O)CC(=O)O)cc1 [Example 7f]	> 2 µM	2.5 to 7.5 µM	A (category “A” indicates <5%)	C (Category “C” indicates 0.5-0.75)
C[C@H](NC(=O)c1cccc2c1-c1ccccc1C2=O)C(=O)N1CCC[C@H]1C(=O)N[C@H](C=O)CC(=O)O [Example 122a]	> 2 µM	< 2.5 µM	A (category “A” indicates <5%)	B (Category “B” indicates 0.25-0.49)
CC[C@H](NC(=O)c1cc(Cl)c(O)c(Cl)c1)C(=O)N1CCC[C@H]1C(=O)N[C@H](C=O)CC(=O)O [Example 20m]	0.5 to 1 µM	< 2.5 µM		
CC(C)[C@H](NC(=O)c1nccc2ccccc12)C(=O)N1CC[C@H](C)[C@H]1C(=O)N[C@H](C=O)CC(=O)O [Example 26c]	0.5 to 1 µM	2.5 to 7.5 µM	C (Category “C” indicates >10%)	A (category “A” indicates <0.25)
CC(=O)Nc1ccc(C(=O)N[C@@H](C)C(=O)N2CCC[C@H]2C(=O)N[C@H](C=O)CC(=O)O)cc1Cl [Example 122f, 3-({1-[2-(4-Acetylamino-3-chloro-benzoylamino)-propionyl]-pyrrolidine-2-carbonyl}-amino)-4-oxo-butyric acid]	0.5 to 1 µM	< 2.5 µM		
COc1ccc(C(=O)NC(C(=O)N2N=C(C(C)(C)C)SC2C(=O)NC(C=O)CC(=O)O)C(C)C)cc1 (centres unmarked) [Example 46b]	> 2 µM	2.5 to 7.5 µM	C (Category “C” indicates >10%)	B (Category “B” indicates 0.25-0.49)
COc1ccc(C(=O)NC(C(=O)N2CCCC2C(=O)NC(C=O)CC(=O)O)C(C)(C)C)cc1 (centres unmarked) [Example 69, 3-({1-[2-(4-Methoxy-benzoylamino)-3,3-dimethyl-butyryl]-pyrrolidine-2-carbonyl}-amino)-4-oxo-butyric acid]	< 0.5 µM	< 2.5 µM	A (category “A” indicates <5%)	C (Category “C” indicates 0.5-0.75)
O=C[C@H](CC(=O)O)NC(=O)[C@@H]1CCCN1C(=O)[C@H](Cc1cccnc1)NC(=O)c1nccc2ccccc12 [Example 20f]	0.5 to 1 µM	< 2.5 µM	C (Category “C” indicates >10%)	B (Category “B” indicates 0.25-0.49)
Cc1cc(C(=O)N[C@@H](C)C(=O)N2CCC[C@H]2C(=O)N[C@H](C=O)CC(=O)O)cc(C)c1O [Example 7c]	< 0.5 µM	< 2.5 µM		
C[C@H](NC(=O)c1ccc(N)c(Cl)c1)C(=O)N1CCC[C@H]1C(=O)N[C@H](C=O)CC(=O)O [Example 122b, 3-({-[2-(4-Amino-3-chloro-benzoylamino)-propionyl]-pyrrolidine-2-carbonyl}-amino)-4-oxo-butyric acid]	0.5 to 1 µM	< 2.5 µM	A (category “A” indicates <5%)	C (Category “C” indicates 0.5-0.75)
CC(C)[C@H](NC(=O)c1nccc2ccccc12)C(=O)N1CCC[C@H]1C(=O)N[C@H](C=O)CC(=O)O [Example 5c]	0.5 to 1 µM	< 2.5 µM	C (Category “C” indicates >10%)	A (category “A” indicates <0.25)
CC(C)[C@H](NC(=O)c1nccc2ccccc12)C(=O)N1[C@@H](c2ccccc2)CC[C@H]1C(=O)N[C@H](C=O)CC(=O)O [Example 26f]	< 0.5 µM	2.5 to 7.5 µM	C (Category “C” indicates >10%)	A (category “A” indicates <0.25)
CS(=O)(=O)CC[C@H](NC(=O)c1nccc2ccccc12)C(=O)N1CCC[C@H]1C(=O)N[C@H](C=O)CC(=O)O [Example 20h]	< 0.5 µM	< 2.5 µM		
C[C@H](NC(=O)c1cc(Cl)c(O)c(Cl)c1)C(=O)N1CCC[C@H]1C(=O)N[C@H](C=O)CC(=O)O [Example 122k, 3-({1-[2-(3,5-Dichloro-4-hydroxy-benzoylamino)-propionyl]-pyrrolidine-2-carbonyl}-amino)-4-oxo-butyric acid]	< 0.5 µM	< 2.5 µM		
Cc1cc(C(=O)N[C@H](C(=O)N2CCCC2C(=O)N[C@H](C=O)CC(=O)O)C(C)C)cc(C)c1O (stereo partly drawn) [Example 65, 3-({l-[2-(4-Hydroxy-3,5-dimethyl-benzoyiamino)-3-methyl-butyryl]-pyrrolidine-2-carbonyl}-amino)-4-oxo-butyric acid]	0.5 to 1 µM	< 2.5 µM	C (Category “C” indicates >10%)	B (Category “B” indicates 0.25-0.49)
CC(C)[C@H](NC(=O)c1cc(Cl)c(O)c(Cl)c1)C(=O)N1CCC[C@H]1C(=O)N[C@H](C=O)CC(=O)O [Example 5m]	< 0.5 µM	< 2.5 µM	C (Category “C” indicates >10%)	B (Category “B” indicates 0.25-0.49)
COc1c(Cl)cc(C(=O)N[C@@H](C)C(=O)N2CCC[C@H]2C(=O)N[C@H](C=O)CC(=O)O)cc1Cl [Example 122c, 3-({1-[2-(3,5-Dichloro-4-methoxy-benzoylamino)-propionyl]-pyrrolidine-2-carbonyl}-amino)-4-oxo-butyric acid]	> 2 µM	2.5 to 7.5 µM	B (Category “B” indicates 5-10%)	C (Category “C” indicates 0.5-0.75)
CC(C)[C@H](NC(=O)c1nccc2ccccc12)C(=O)N1C2CCCCC2C[C@H]1C(=O)N[C@H](C=O)CC(=O)O (some centres unmarked) [Example 26e]	< 0.5 µM	< 2.5 µM	B (Category “B” indicates 5-10%)	B (Category “B” indicates 0.25-0.49)
CC(C)[C@H](NC(=O)c1nccc2ccccc12)C(=O)N1CC(c2ccccc2)[C@H]1C(=O)N[C@H](C=O)CC(=O)O (some centres unmarked) [Example 24c]	< 0.5 µM	2.5 to 7.5 µM	C (Category “C” indicates >10%)	A (category “A” indicates <0.25)
CC(C)[C@H](NC(=O)c1ccccc1)C(=O)N[C@@H](C)C(=O)N[C@H](C=O)CC(=O)O [Example 29a] (Bz-Val-Ala-Asp-aldehyde)	< 0.5 µM	< 2.5 µM		
COc1ccc(C(=O)NC(C(=O)N2CCCC2C(=O)NC(C=O)CC(=O)O)C(C)C)cc1 (centres unmarked) [Example 57, 3-({1-[2-(4-Methoxy-benzoylamino)-3-methyl-butyryl]-pyrrolidine-2-carbonyl}-amino)-4-oxo-butyric acid]	0.5 to 1 µM	> 7.5 µM	B (Category “B” indicates 5-10%)	B (Category “B” indicates 0.25-0.49)
CC(C)[C@H](NC(=O)c1ccccc1)C(=O)N1CC(c2ccccc2)[C@H]1C(=O)N[C@H](C=O)CC(=O)O (some centres unmarked) [Example 24a]	0.5 to 1 µM	2.5 to 7.5 µM	A (category “A” indicates <5%)	C (Category “C” indicates 0.5-0.75)
COCC(=O)N1CCN(C(=O)[C@H](C)NC(=O)c2ccc(N)c(Cl)c2)[C@H](C(=O)N[C@H](C=O)CC(=O)O)C1 [Example 18f]	> 2 µM	2.5 to 7.5 µM	A (category “A” indicates <5%)	D (Category “D” indicates >0.75)
COc1c(C)cc(C(=O)N[C@@H](C)C(=O)N2CCC[C@H]2C(=O)N[C@H](C=O)CC(=O)O)cc1C [Example 122d, 3-({1-[2-(4-Methoxy-3,5-dimethyl-benzoylamino)-propionyl]-pyrrolidine-2-carbonyl}-amino)-4-oxo-butyric acid]	0.5 to 1 µM	< 2.5 µM	A (category “A” indicates <5%)	C (Category “C” indicates 0.5-0.75)
CSC[C@H](NC(=O)c1nccc2ccccc12)C(=O)N1CCC[C@H]1C(=O)N[C@H](C=O)CC(=O)O [Example 20g]	< 0.5 µM	< 2.5 µM	A (category “A” indicates <5%)	B (Category “B” indicates 0.25-0.49)
C[C@H](NC(=O)c1ccc(N)c(Cl)c1)C(=O)N1CC(F)(F)C[C@H]1C(=O)N[C@H](C=O)CC(=O)O [Example 27a]	< 0.5 µM	< 2.5 µM	A (category “A” indicates <5%)	C (Category “C” indicates 0.5-0.75)
C[C@H](NC(=O)c1nccc2ccccc12)C(=O)N1CCC[C@H]1C(=O)N[C@H](C=O)CC(=O)O [Example 7d]	< 0.5 µM	2.5 to 7.5 µM	A (category “A” indicates <5%)	D (Category “D” indicates >0.75)
